Measured values from PMC5008412, “A phase I study of indoximod in patients with advanced malignancies” (Oncotarget, 2016).

How the values were obtained:
[1] = system: Lewis lung cancer mouse xenografts; design: method as in PMID 15711557, PMID 16166276; conditions: transplanted Lewis lung cancer mouse xenografts; cited from earlier work
C-reactive protein = C-reactive protein levels; assay type: in vivo, human
Description: Physical examinations, autoimmunity evaluations, complete blood counts, metabolic panels, and C-reactive protein levels were obtained at baseline and every 2 weeks. Pituitary function tests (thyroid-stimulating hormone, free T4, luteinizing hormone, follicular stimulating hormone, and adrenocortical hormone) and anti-nuclear autoantibody titers were obtained at baseline and every 4 weeks.

[2] = design: method as in PMID 17234791; conditions: combined with cyclophosphamide; compared among forms of 1-methyl-tryptophan; cited from earlier work
[3] = Plasma pharmacokinetics (LC-MS/MS, non-compartmental); assay type: in vivo, human
Description: A validated liquid chromatography triple-quadrupole with tandem mass spectrometry method was used to determine levels of indoximod in plasma. The methods were validated per International Conference on Harmonization/Food and Drug Administration guidelines. Plasma samples were prepared for chromatographic injections by protein precipitation as described in Supplement 1.
Plasma concentration-time data for indoximod were analyzed by non-compartmental pharmacokinetic methods using Phoenix WinNonlin 6.3 (Pharsight Corp., Mountain View, CA). Data in the terminal, log-linear phase were analyzed by linear regression to estimate terminal elimination rate constant and half-life. These additional pharmacokinetic parameters were also determined: AUC0-48, AUC0-inf, Cmax, Tmax, terminal half-life (t1/2), apparent clearance, and apparent volume of distribution.

[4] = system: 30 different tumor-associated antigens; experiment: Autoantibody titers to tumor-associated antigens (Serametrix protein microarray); assay type: in vivo, human; conditions: week 5; of 40 patients evaluated; P < 0.05
Description: (§1) Plasma kynurenine and tryptophan levels were measured via high-performance liquid chromatography at baseline and during weeks 1-4 of treatment using previously published methods. Humoral responses toward multiple cancer-testis antigens were analyzed by a proprietary whole protein microarray (Serametrix, Carlsbad, CA) in a 200-μL plasma aliquot, collected at blood draws at baseline and at week 5. Autoantibody titers were reported as relative fluorescence units using human anti-IgG reporter antibodies with blank and predetermined IgG antibody titer control spots using a Perkin Elmer fluorescence scanner.

IDO = experiment: Plasma kynurenine/tryptophan pharmacodynamics (HPLC); assay type: in vivo, human
Description: as §1

advanced solid tumors = experiment: Response evaluation by RECIST 1.1; assay type: in vivo, human
Description: Overall response rate was determined via the criteria described by the RECIST 1.1 guidelines. Baseline evaluations were conducted within 14 days before start of therapy, with CT scans performed within 4 weeks before start of therapy. Patients were then reevaluated every 8 weeks with diagnostic CT scans. The best overall response achieved during study therapy was recorded for each patient. The response data presented herein underwent site radiology review. The duration of response was measured from the time criteria were met for complete or partial response until the first date that recurrent or progressive disease was documented.

[5] = system: circulating T cell populations; experiment: T-cell flow cytometry panel on patient blood; assay type: in vivo, human
Description: At weeks 1, 3, 5, and 7 of treatment, patient blood was collected into 3 heparinized 10-mL Vacutainer tubes. Samples underwent Ficoll separation and cryopreservation for subsequent analyses. A total of 16 patients across dose levels 4-10 had satisfactory samples collected at all 4 time points for multiparameter flow analyses (see Table 1 for definition of dose levels). Flow cytometry analyses using a T-cell panel (CCR6-FITC, CD45RO-PerCP-Cy5, CD45RA-BV421, HLADR-BV650, CD4-PE, CD25-PECy7, CD127-Alexa 647, CD3- BUV395, Live/Dead Aqua, CD8-BUV737) to determine changes in circulating levels of T-regulatory cells (CD4+CD25+CD127low), naïve (CD45RA+) versus memory (CCR6+/−CD45RO+) CD4 and CD8 T cells, and activated T-cell subsets (HLA-DR+) were carried out in the Moffitt Flow Cytometry Core on an LSRII with compensation beads and fluorescence minus one controls. Gating was done using fluorescence minus one thresholds, and analyses were done using FloJo X software. Mean percentages of the populations were calculated from single, live, CD3+-gated events and analyzed across the 4 time points for the entire group, with lower (dose levels 4-8) versus higher (dose levels 9-10) dose levels compared using ANOVA in Prism GraphPad. P levels of 0.05 indicated significance.

Structure (SMILES) | effect on tumor growth [1] | C reactive protein (CRP) levels (C-reactive protein; across multiple dose levels) | mean level of C-reactive protein (C-reactive protein; week 3 of treatment, baseline 3.81 mg/dL, P = 0.02) | in vivo antitumor activity [2] | half-life ([3]; human, plasma, po) | Cmax ([3]; human, plasma, 2000 mg twice/day oral) | dose range with linear dose response of AUC and Cmax ([3]; oral) | single doses with plateauing of peak serum levels ([3]; oral) | drug renally cleared ([3]; patients) | oral bioavailability ([3]; patients) | time at which Cmax occurred ([3]; plasma, oral) | anticipated therapeutic dose of 10 to 15 μM ([3]; serum drug level with current dosing schedules) | patients with significantly higher autoantibody titers than at baseline [4] | effect on circulating kynurenine levels (IDO) | patients with stable disease >6 months (advanced solid tumors; of 48 patients) | single-agent antitumor activity (advanced solid tumors; patients with advanced solid tumors) | best response (advanced solid tumors; site radiologist assessment, RECIST 1.1) | changes in T cell populations (Treg, naive/memory CD4 and CD8, activated subsets) ([5]; baseline through week 7, group as a whole) | dose-dependent changes in T cell populations ([5]; higher dose levels versus lower dose levels)
Cn1cc(CC(N)C(=O)O)c2ccccc21 (racemic) [1-methyl-DL-tryptophan] | delaying growth | – | – | – | – | – | – | – | – | – | – | – | – | – | – | – | – | – | –
Cn1cc(C[C@@H](N)C(=O)O)c2ccccc21 [indoximod, 1-methyl-D-tryptophan] | – | increased | 5.13 mg/dL | superior | 10.5 h | ~12 µM | up to 800 mg once daily | ≥ 1600 mg | 20% | good | 2.9 h | reached | 12 | lack of effect | 5 | modest | stable disease | did not identify any statistically significant changes | no detectable dose-dependent changes
